Test results from patent US7109243B2 (IRM LLC, priority 2003, dated 2006).

How the values were obtained:
Cathepsin S = Cathepsin S (Homo sapiens, UniProt P25774); experiment: Cathepsin S inhibition assay (fluorogenic peptide substrate); type: biochemical; conditions: Table II, compounds of Formula I; read-out: Ki Cat. S
How it was run: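 Ki values come from nonlinear fitting of inhibited hydrolysis rates, taking free and total inhibitor concentrations as equal. Rates measured as rising fluorescence at 380/450 nm after reaction start with 50 μM final acetyl-HPVK-aminocarbamoylcoumarin.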

Cathepsin K = target: T1, Cathepsin K (Homo sapiens, UniProt P43235); experiment: Cathepsin K inhibition assay (fluorogenic peptide substrate); selectivity ratio vs cathepsin S; type: biochemical; conditions: ratio of cathepsin K inhibition constant to cathepsin S inhibition constant; Table II
T1 sequence (P43235 115-329): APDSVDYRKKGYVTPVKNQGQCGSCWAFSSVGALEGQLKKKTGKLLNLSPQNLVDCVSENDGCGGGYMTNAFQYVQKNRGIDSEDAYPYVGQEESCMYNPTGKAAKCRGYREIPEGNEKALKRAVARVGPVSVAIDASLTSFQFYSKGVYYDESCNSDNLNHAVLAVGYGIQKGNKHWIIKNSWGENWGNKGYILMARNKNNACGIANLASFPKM
How it was run: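 Inhibition constants for competitive inhibitors come from apparent values fitted to enzyme progress curves. Substrate, acetyl-Lys-His-Pro-Lys-aminocarbamoylcoumarin (40 μM final), starts the reaction; fluorescence rise read at 380 nm excitation, 450 nm emission. Selectivity ratio: other cathepsin constant over cathepsin S constant.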

Cathepsin S, sequence (P25774 115-331, species assumed): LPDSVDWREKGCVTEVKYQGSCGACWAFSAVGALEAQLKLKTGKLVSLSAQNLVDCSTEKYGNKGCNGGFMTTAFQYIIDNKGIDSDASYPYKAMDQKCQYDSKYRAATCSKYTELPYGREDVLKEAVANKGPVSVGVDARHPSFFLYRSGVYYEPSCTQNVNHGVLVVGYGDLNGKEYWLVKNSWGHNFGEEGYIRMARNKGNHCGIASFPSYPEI

## COc1ccc(NCCNC(=O)C(NC(=O)c2cccc(C)c2)C(C)c2ccc([N+](=O)[O-])cc2)cc1 (stereo not shown) [Compound 266, N-[1-[2-(4-Methoxy-phenylamino)-ethylcarbamoyl]-2-(4-nitro-phenyl)-propyl]-3-methyl-benzamide]
Cathepsin S
  Ki: < 1000 nM
Cathepsin K
  Selectivity for Cat. S over Cat. K: + (+, >10)

## COc1ccc(NCCNC(=O)[C@H](CC2CCCCC2)NC(=O)c2ccc(OCc3ccccc3)cc2)cc1 [Compound 109, (S)-4-Benzyloxy-N-{2-cyclohexyl-1-[2-(4-methoxy-phenylamino)-ethylcarbamoyl]-ethyl}-benzamide]
Cathepsin S
  Ki: < 100 nM
Cathepsin K
  Selectivity for Cat. S over Cat. K: +++ (+++, >1000)

## O=C(Cc1cccc(Cl)c1)N[C@@H](CC1CCCCC1)C(=O)NCCNc1ccc(F)cc1 [Compound 302, 2-(S)-[2-(3-Chloro-phenyl)-acetylamino]-3-cyclohexyl-N-[2-(4-fluoro-phenylamino)-ethyl]-propionamide]
Cathepsin S
  Ki: < 100 nM
Cathepsin K
  Selectivity for Cat. S over Cat. K: ++ (++, >100)

## COc1ccc(NCCNC(=O)[C@H](CC=Cc2ccccc2)NC(=O)c2cccc(C)c2)cc1 [Compound 208, (S)-N-{1-[2-(4-Methoxy-phenylamino)-ethylcarbamoyl]-4-phenyl-but-3-enyl}-3-methyl-benzamide]
Cathepsin S
  Ki: < 100 nM
Cathepsin K
  Selectivity for Cat. S over Cat. K: +++ (+++, >1000)

## COc1ccc(NCCNC(=O)[C@H](CC2CCCCC2)NC(=O)c2ccc(F)c(C(F)(F)F)c2)cc1 [Compound 149, (S)-N-{2-Cyclohexyl-1-[2-(4-methoxy-phenylamino)-ethylcarbamoyl]-ethyl}-4-fluoro-3-trifluoromethyl-benzamide]
Cathepsin S
  Ki: < 100 nM
Cathepsin K
  Selectivity for Cat. S over Cat. K: +++ (+++, >1000)

## COc1ccc(NCCNC(=O)[C@H](CC2CCCCC2)NC(=O)c2ccc(Br)o2)cc1 [Compound 177, (S)-5-Bromo-furan-2-carboxylic acid {2-cyclohexyl-1-[2-(4-methoxy-phenylamino)-ethylcarbamoyl]-ethyl}-amide]
Cathepsin S
  Ki: < 100 nM
Cathepsin K
  Selectivity for Cat. S over Cat. K: ++ (++, >100)

## COc1ccc(NCCNC(=O)[C@H](Cc2cccc3ccccc23)NC(=O)c2cccc(C)c2)cc1 [Compound 258, (S)-N-{1-[2-(4-Methoxy-phenylamino)-ethylcarbamoyl]-2-naphthalen-1-yl-ethyl}-3-methyl-benzamide]
Cathepsin S
  Ki: < 100 nM
Cathepsin K
  Selectivity for Cat. S over Cat. K: +++ (+++, >1000)

## O=C(Cc1cccc(F)c1)N[C@@H](CC1CCCCC1)C(=O)NCCNc1ccc(F)cc1 [Compound 260, 3-Cyclohexyl-2-(S)-[2-(3-fluoro-phenyl)-acetylamino]-N-[2-(4-fluoro-phenylamino)-ethyl]-propionamide]
Cathepsin S
  Ki: < 100 nM
Cathepsin K
  Selectivity for Cat. S over Cat. K: ++ (++, >100)

## C[C@@H](C(=O)N[C@@H](CC1CCCCC1)C(=O)NCCNc1ccc(F)cc1)c1ccccc1 [Compound 315, N-{2-cyclohexyl-1-(S)-[2-(4-fluoro-phenylamino)-ethylcarbamoyl]-ethyl}-2-(R)-phenyl-propionamide]
Cathepsin S
  Ki: < 100 nM
Cathepsin K
  Selectivity for Cat. S over Cat. K: ++ (++, >100)

## COc1ccc(NCCNC(=O)[C@H](CC2CCCCC2)NC(=O)c2sc(N)nc2C)cc1 [Compound 114, (S)-2-Amino-4-methyl-thiazole-5-carboxylic acid {2-cyclohexyl-1-[2-(4-methoxy-phenylamino)-ethylcarbamoyl]-ethyl}-amide]
Cathepsin S
  Ki: < 100 nM
Cathepsin K
  Selectivity for Cat. S over Cat. K: ++ (++, >100)

## Cc1oc(S(=O)(=O)N2CCCC2)cc1C(=O)N[C@@H](CC1CCCCC1)C(=O)NCCNc1ccc(OC(F)(F)F)cc1 [Compound 40, 2-Methyl-5-(pyrrolidine-1-sulfonyl)-furan-3-carboxylic acid (S)-{2-cyclohexyl-1-[2-(4-trifluoromethoxy-phenylamino)-ethylcarbamoyl]-ethyl}-amide]
Cathepsin S
  Ki: < 1000 nM
Cathepsin K
  Selectivity for Cat. S over Cat. K: + (+, >10)
